{"source": "paper PMC7065771", "about": "“Dietary supplementation of recombinant antimicrobial peptide Epinephelus lanceolatus piscidin improves growth performance and immune response in Gallus gallus domesticus” (PLoS ONE, 2020)", "key": {"[1]": {"tested_on": "Escherichia coli (BCRC 10675)", "assay": "Inhibition zone (disk diffusion) assay", "assay_type": "cell-based", "details": "Escherichia coli, BCRC10675; disk paper on culture plate 16 h at 37°C; rEP: shake-flask supernatant 120 h after induction, maximum carrying capacity; ampicillin 2 mg/ml, 10 μl; read-out: Inhibition zone diameter", "protocol": "(§1) All assays were performed in triplicate.\n(§2) The antimicrobial activity of rEP from flask cultures was evaluated by determining its ability to prevent growth of Gram-positive and Gram-negative bacteria with a disk diffusion assay. […] The most susceptible pathogens were R. anatipestifer (CFC27) and R. anatipestifer (CFC437) (Table 3a). Next, we investigated the thermostability of flask-fermented rEP with regard to its toxicity toward S. aureus (BCRC 10780), E. coli (BCRC 10675) and P. aeruginosa (ATCC 19660). Empty vector with no insert in P. pastoris was used as a control. Thermostability was measured by disk diffusion assay after cultures were incubated for 5 min at 40, 60, 80, or 100°C (Table 3b)."}, "[2]": {"tested_on": "Pseudomonas aeruginosa (ATCC 19660)", "assay": "Inhibition zone (disk diffusion) assay", "assay_type": "cell-based", "details": "Pseudomonas aeruginosa, ATCC19660; disk paper on culture plate 16 h at 37°C; rEP: shake-flask supernatant 120 h after induction, maximum carrying capacity; ampicillin 2 mg/ml, 10 μl; read-out: Inhibition zone diameter", "protocol": "as §1, §2"}, "[3]": {"tested_on": "Riemerella anatipestifer (RA9)", "assay": "Inhibition zone (disk diffusion) assay", "assay_type": "cell-based", "details": "disk paper on culture plate 16 h at 37°C, rEP: shake-flask supernatant 120 h after induction, maximum carrying capacity, ampicillin 2 mg/ml, 10 μl, read-out: Inhibition zone diameter", "protocol": "as §1, §2"}, "[4]": {"tested_on": "Staphylococcus aureus (BCRC 10780)", "assay": "Inhibition zone (disk diffusion) assay", "assay_type": "cell-based", "details": "Staphylococcus aureus, BCRC10780; disk paper on culture plate 16 h at 37°C; rEP: shake-flask supernatant 120 h after induction, maximum carrying capacity; ampicillin 2 mg/ml, 10 μl; read-out: Inhibition zone diameter", "protocol": "as §1, §2"}, "[5]": {"tested_on": "Riemerella anatipestifer (CFC27)", "assay": "Inhibition zone (disk diffusion) assay", "assay_type": "cell-based", "details": "Riemerella anatipestifer; disk paper 16 h at 37°C; ampicillin 2 mg/ml, 10 μl; read-out: Inhibition zone diameter", "protocol": "as §1, §2"}, "[6]": {"tested_on": "Riemerella anatipestifer (RA16)", "assay": "Inhibition zone (disk diffusion) assay", "assay_type": "cell-based", "details": "disk paper on culture plate 16 h at 37°C, rEP: shake-flask supernatant 120 h after induction, maximum carrying capacity, ampicillin 2 mg/ml, 10 μl, read-out: Inhibition zone diameter", "protocol": "as §1, §2"}, "[7]": {"tested_on": "Riemerella anatipestifer (CFC363)", "assay": "Inhibition zone (disk diffusion) assay", "assay_type": "cell-based", "details": "disk paper on culture plate 16 h at 37°C, rEP: shake-flask supernatant 120 h after induction, maximum carrying capacity, ampicillin 2 mg/ml, 10 μl, read-out: Inhibition zone diameter", "protocol": "as §1, §2"}, "[8]": {"tested_on": "Riemerella anatipestifer (RA3)", "assay": "Inhibition zone (disk diffusion) assay", "assay_type": "cell-based", "details": "Riemerella anatipestifer; disk paper 16 h at 37°C; ampicillin 2 mg/ml, 10 μl; read-out: Inhibition zone diameter", "protocol": "as §1, §2"}, "[9]": {"tested_on": "Riemerella anatipestifer (CFC437)", "assay": "Inhibition zone (disk diffusion) assay", "assay_type": "cell-based", "details": "Riemerella anatipestifer; disk paper 16 h at 37°C; ampicillin 2 mg/ml, 10 μl; read-out: Inhibition zone diameter", "protocol": "as §1, §2"}, "Escherichia coli": {"tested_on": "Escherichia coli", "assay_type": "cell-based", "details": "24 h", "protocol": "as §1"}, "Klebsiella oxytoca": {"tested_on": "Klebsiella oxytoca", "assay_type": "cell-based", "details": "24 h", "protocol": "as §1"}, "[10]": {"tested_on": "Staphylococcus aureus subsp", "assay_type": "cell-based", "details": "24 h", "protocol": "as §1"}, "Streptococcus agalactiae": {"tested_on": "Streptococcus agalactiae", "assay_type": "cell-based", "details": "24 h", "protocol": "as §1"}, "Streptococcus equinus": {"tested_on": "Streptococcus equinus", "assay_type": "cell-based", "details": "24 h", "protocol": "as §1"}, "Vibrio parahaemolyticus": {"tested_on": "Vibrio parahaemolyticus", "details": "synthetic peptide, microbroth dilution series, Gram -"}, "MRSA": {"tested_on": "MRSA", "assay_type": "cell-based, Methicillin-resistant Staphylococcus aureus", "details": "24 h", "protocol": "as §1"}, "Pseudomonas aeruginosa": {"tested_on": "Pseudomonas aeruginosa", "assay_type": "cell-based", "details": "24 h", "protocol": "as §1"}}}
{"compound": "CC1(C)S[C@@H]2[C@H](NC(=O)[C@H](N)c3ccccc3)C(=O)N2[C@H]1C(=O)O", "note": "[Ampicillin, reference compound]", "values": [{"measurement": "zone of inhibition at 2000 µg/mL", "setting": "[1]", "result": "13.6 ± 0.5", "unit": "mm"}, {"measurement": "zone of inhibition at 2000 µg/mL", "setting": "[2]", "result": "11.6 ± 0.5", "unit": "mm"}, {"measurement": "zone of inhibition at 2000 µg/mL", "setting": "[3]", "result": "31 ± 0.8", "unit": "mm"}, {"measurement": "zone of inhibition at 2000 µg/mL", "setting": "[4]", "result": "14.6 ± 0.5", "unit": "mm"}, {"measurement": "zone of inhibition at 2000 µg/mL", "setting": "[5]", "result": "43 ± 1.1", "unit": "mm"}, {"measurement": "zone of inhibition at 2000 µg/mL", "setting": "[6]", "result": "30 ± 1.2", "unit": "mm"}, {"measurement": "zone of inhibition at 2000 µg/mL", "setting": "[7]", "result": "32 ± 2.3", "unit": "mm"}, {"measurement": "zone of inhibition at 2000 µg/mL", "setting": "[8]", "result": "12 ± 2.5", "unit": "mm"}, {"measurement": "zone of inhibition at 2000 µg/mL", "setting": "[9]", "result": "15 ± 4.5", "unit": "mm"}]}
{"compound": "Ac-CFFRHIKSFWRGAKAIFRGARQGWRE-NH2 [G6497-t1]", "values": [{"measurement": "MIC", "setting": "Escherichia coli", "result": 30, "unit": "µg/mL"}, {"measurement": "MIC", "setting": "Klebsiella oxytoca", "result": 30, "unit": "µg/mL"}, {"measurement": "MIC", "setting": "[10]", "result": 60, "unit": "µg/mL"}, {"measurement": "MIC", "setting": "Streptococcus agalactiae", "result": 60, "unit": "µg/mL"}, {"measurement": "MIC", "setting": "Streptococcus equinus", "result": 15, "unit": "µg/mL"}, {"measurement": "MIC", "setting": "Vibrio parahaemolyticus", "result": 60, "unit": "µg/mL"}, {"measurement": "MIC", "setting": "MRSA", "result": 60, "unit": "µg/mL"}]}
{"compound": "Ac-CIMKHLRNLWNGAKAIYNGAKAGWTEFK-NH2 [G6496-t1]", "values": [{"measurement": "MIC", "setting": "Escherichia coli", "result": 60, "unit": "µg/mL"}, {"measurement": "MIC", "setting": "Klebsiella oxytoca", "result": 60, "unit": "µg/mL"}, {"measurement": "MIC", "setting": "[10]", "result": 60, "unit": "µg/mL"}, {"measurement": "MIC", "setting": "Streptococcus agalactiae", "result": 60, "unit": "µg/mL"}, {"measurement": "MIC", "setting": "Streptococcus equinus", "result": 30, "unit": "µg/mL"}]}
{"compound": "Ac-GFIFHIIKGLFHAGRMIHGLVNRRRHRHGMEE-NH2 [G6498-t1]", "values": [{"measurement": "MIC", "setting": "Pseudomonas aeruginosa", "result": 45, "unit": "µg/mL"}, {"measurement": "MIC", "setting": "Escherichia coli", "result": 22.5, "unit": "µg/mL"}, {"measurement": "MIC", "setting": "Klebsiella oxytoca", "result": 45, "unit": "µg/mL"}, {"measurement": "MIC", "setting": "[10]", "result": 90, "unit": "µg/mL"}, {"measurement": "MIC", "setting": "Streptococcus agalactiae", "result": 90, "unit": "µg/mL"}, {"measurement": "MIC", "setting": "Streptococcus equinus", "result": 11.2, "unit": "µg/mL"}, {"measurement": "MIC", "setting": "Vibrio parahaemolyticus", "result": 5.6, "unit": "µg/mL"}, {"measurement": "MIC", "setting": "MRSA", "result": 5.6, "unit": "µg/mL"}]}
